Assay results reported in US20240101599A1, “PEPTIDE, CELL GROWTH PROMOTER, PROTEIN PRODUCTION PROMOTER, CULTURE MEDIUM, CELL GROWTH METHOD USING PEPTIDE, AND PROTEIN PRODUCTION METHOD USING PEPTIDE” (Maruhachi Muramatsu, Inc., priority 2020, published 2024).
Peptide text beside a SMILES is read from it.

Key:
CHO-K1 = assay: Relationship between concentration of each peptide solution and viable cell count (absorbance); format: cell-based; settings: for Absorbance (450 nm): 5 days, MEMα without FBS, n = 3 average, 0 mM = 0.0000; for cell growth promotion, order of the peptides: in words, promoted in the order GEK, DGP, AGK, GPP, GGP, AEK, AGG, ASN, EGK (strongest first)
Protocol: Peptides having the sequences of Gly-Glu-Lys (GEK), Asp-Gly-Pro (DGP), Ala-Gly-Lys (AGK), Gly-Pro-Pro (GPP), Gly-Gly-Pro (GGP), Ala-Glu-Lys (AEK), Ala-Gly-Gly (AGG), Ala-Ser-Asn (ASN), and Glu-Gly-Lys (EGK), and Gly-Gly-Gly (GGG) are synthesized to prepare each of peptide solutions at 10-fold concentrations shown in Tables 1 to 10.
A cell suspension prepared such that CHO-K1 (RI KEN BioResource Research Center, cell number: RCB2330) was at 3×10^4 cells/mL was seeded in a 96-well plate at 100 μL/well and cultured in an incubator at 37° C. and 5% CO2 for 24 hours. As a culture medium, an MEMα culture medium (Gibco) containing 10% FBS was used.
After removing the culture medium from each well and washing with the MEMα culture medium (100 μL), 90 μL of a new MEMa culture medium was dispensed into each well, and each peptide solution (10 μL) was added (total 100 μL/well) such that final concentrations were within a range of 0 mM to 5 mM as shown in Tables 1 to 10 to perform culture for 5 days. A similar culture test was performed using a system containing neither peptide nor FBS as a comparative sample. After culturing for 5 days, 10 μL/well of a viable cell count measurement reagent SF (Nacalai Tesque Inc.) was added, and a color reaction was carried out in an incubator at 37° C. and 5% CO2 for 2 hours to measure an absorbance at 450 nm with a plate reader. A reference wavelength was 630 nm. It was confirmed that the absorbance at 450 nm correlated with the cell number.
The above preparation, culture, and measurement were performed with n=3, and Tables 1 to 10 and FIGS. 1 to 10 show the absorbance at the concentration of each peptide solution.

CHO DP-12 = assay: Cell growth test and protein production test on each peptide and combination of peptides on coating agent; format: cell-based; settings: one type of tripeptide: GPP 1.1 mM, DGP 2.2 mM, GEK 2.1 mM, AGK 2.0 mM, 5 days; for Amount of protein produced, Average / Viability, Average: average n=3; for Amount of protein produced, Average / Amount of protein produced, 1 / Amount of protein produced, 2 / Amount of protein produced, 3: ELISA; for Cells cell count, Average: poly-L-lysine coating, n=3; for Amount of protein produced, 1 / Viability, 1: replicate 1; for Amount of protein produced, 2 / Viability, 2: replicate 2; for Amount of protein produced, 3 / Viability, 3: replicate 3
Protocol: Peptides having the sequences of Gly-Pro-Pro (GPP), Asp-Gly-Pro (DGP), Gly-Glu-Lys (GEK), and Ala-Gly-Lys (AGK) were synthesized to prepare each peptide solution such that the concentration was a concentration at which the cell number increased the most within a range of 0 mM to 5 mM. In other words, Gly-Pro-Pro (GPP) was adjusted to 11 mM, Asp-Gly-Pro (DGP) was adjusted to 22 mM, Gly-Glu-Lys (GEK) was adjusted to 21 mM, and Ala-Gly-Lys (AGK) was adjusted to 20 mM, and an amount of 1/10 of the total culture medium volume was added to each well immediately before the cell culture test such that final concentrations were 1.1 mM, 2.2 mM, 2.1 mM, and 2.0 mM, respectively. Poly-L-lysine (Peptide Institute, Inc., Poly-L-Lysine Hydrochloride, code: 3075) was prepared to 0.1 mg/mL, and 200 μL was dispensed into each well of a 24-well plate, which was left to stand in an incubator at 37° C. for 2 hours. After removing the residual liquid with an aspirator, rinsing was performed with distilled water, irradiation was performed with a UV lamp in a clean bench without a lid, and drying was performed overnight to sterilize. A cell suspension prepared such that CHO DP-12 (ATCC, Cat. No. CRL-12445) was at 2×10^4 cells/well and 500 μL was seeded in a 24-well plate and cultured in an incubator at 37° C. and 5% CO2 for 24 hours. As a culture medium, a DMEM basal medium in which 200 nM of methotrexate and 2 μg/mL of insulin were blended in a DMEM culture medium (Gibco) containing 10% FBS was used.
After removing the culture medium from each well and washing with the DMEM basal medium (500 μL), 450 μL of a new DMEM basal medium was dispensed into each well, and each peptide solution (50 μL) was added (total 500 μL/well) to perform culture for 5 days.
As peptides, in addition to single GPP, DGP, GEK, and AGK, combinations of GPP+GEK, GPP+AGK, DGP+GEK, GEK+AGK, DGP+AGK, GPP+GEK+AGK, GPP+DGP+AGK, and GPP+DGP+GEK were used. A similar culture test was performed using a system containing neither peptide nor FBS as a comparative sample.
In order to measure the amount of protein produced, 100 μL of the culture medium supernatant was recovered in a 1.5 mL tube and diluted to quantitatively determine the amount of protein produced by an ELISA method.
In order to recover the cells, the culture medium in each well was recovered in a 1.5 mL tube to be rinsed with 200 μL of the DMEM basal medium, and the rinsed liquid was also recovered in the same 1.5 mL tube. Thereafter, 100 μL of trypsin was added and incubated for 3 minutes. After rinsing with 300 μL of the DMEM basal medium containing 10% FBS, the rinsed liquid was also recovered in the same 1.5 mL tube. After rinsing again with 200 μL of the DMEM basal medium containing 10% FBS, the rinsed liquid was also recovered in the same 1.5 mL tube.
A centrifugation operation was performed on the cells recovered in the 1.5 mL tube. The centrifugation conditions were 1,000 rpm, 10 minutes, and 4° C.
The supernatant was removed, and 300 μL of Cold PBS (phosphate buffered saline) was added to perform a centrifugation operation under the same conditions. The present operation was repeated twice.
Suspension was carried out with 100 μL of Binding Buffer, and 2 μL of propidium iodide (PI) was added and stirred in the tube to cause a reaction for 15 minutes at room temperature and with light shielding. Thereafter, the viable cell count and the cell viability were measured with a flow cytometer.
The above preparation, culture, and measurement were performed with n=3. Table 17, FIG. 17, Table 20, FIG. 20, Table 23, and FIG. 23 show the viable cell count in each peptide solution. Table 18, FIG. 18, Table 21, FIG. 21, Table 24, and FIG. 24 show the cell viability in each peptide solution. Table 19, FIG. 19, Table 22, FIG. 22, Table 25, and FIG. 25 show the amount of protein produced in each peptide solution.

C[C@H](N)C(=O)NCC(=O)N[C@@H](CCCCN)C(=O)O [AGK, Ala-Gly-Lys] (H-Ala-Gly-Lys-OH; N-terminus and C-terminus assumed)
Absorbance (450 nm) (CHO-K1; 0.123 mM peptide): 0.0180
Absorbance (450 nm) (CHO-K1; 0.247 mM peptide): 0.1440
Absorbance (450 nm) (CHO-K1; 0.494 mM peptide): 0.3360
Absorbance (450 nm) (CHO-K1; 0.99 mM peptide): 0.5380
Absorbance (450 nm) (CHO-K1; 1.97 mM peptide): 0.6613
Absorbance (450 nm) (CHO-K1; 3.95 mM peptide): 0.4693
cell growth promotion, order of the peptides (CHO-K1): cell growth was promoted
Amount of protein produced, Average (CHO DP-12): 6.92 mg/L
Viability, Average (CHO DP-12): 88.5
Cells cell count, Average (CHO DP-12): 19.0887 ×10^4
Amount of protein produced, 1 (CHO DP-12): 7.36 mg/L
Viability, 1 (CHO DP-12): 89.0
Amount of protein produced, 2 (CHO DP-12): 6.61 mg/L
Viability, 2 (CHO DP-12): 88.5
Amount of protein produced, 3 (CHO DP-12): 6.78 mg/L
Viability, 3 (CHO DP-12): 88.1

NCCCC[C@H](NC(=O)[C@H](CCC(=O)O)NC(=O)CN)C(=O)O [GEK, Gly-Glu-Lys] (H-Gly-Glu-Lys-OH; N-terminus and C-terminus assumed)
Absorbance (450 nm) (CHO-K1; 0.128 mM peptide): −0.0903
Absorbance (450 nm) (CHO-K1; 0.257 mM peptide): 0.0657
Absorbance (450 nm) (CHO-K1; 0.512 mM peptide): 0.3020
Absorbance (450 nm) (CHO-K1; 1.02 mM peptide): 0.6377
Absorbance (450 nm) (CHO-K1; 2.05 mM peptide): 1.0050
Absorbance (450 nm) (CHO-K1; 4.10 mM peptide): 0.5757
cell growth promotion, order of the peptides (CHO-K1): cell growth was promoted
Amount of protein produced, Average (CHO DP-12): 5.59 mg/L
Viability, Average (CHO DP-12): 86.9
Cells cell count, Average (CHO DP-12): 15.9345 ×10^4
Amount of protein produced, 1 (CHO DP-12): 6.13 mg/L
Viability, 1 (CHO DP-12): 86.5
Amount of protein produced, 2 (CHO DP-12): 4.59 mg/L
Viability, 2 (CHO DP-12): 87.4
Amount of protein produced, 3 (CHO DP-12): 6.06 mg/L
Viability, 3 (CHO DP-12): 86.7

Asp-Gly-Pro [DGP]
Absorbance (450 nm) (CHO-K1; 0.138 mM peptide): 0.0957
Absorbance (450 nm) (CHO-K1; 0.278 mM peptide): 0.2464
Absorbance (450 nm) (CHO-K1; 0.555 mM peptide): 0.4127
Absorbance (450 nm) (CHO-K1; 1.11 mM peptide): 0.5617
Absorbance (450 nm) (CHO-K1; 2.22 mM peptide): 0.7657
Absorbance (450 nm) (CHO-K1; 4.44 mM peptide): 0.4004
cell growth promotion, order of the peptides (CHO-K1): cell growth was promoted
Amount of protein produced, Average (CHO DP-12): 5.24 mg/L
Viability, Average (CHO DP-12): 86.9
Cells cell count, Average (CHO DP-12): 14.6333 ×10^4
Amount of protein produced, 1 (CHO DP-12): 5.37 mg/L
Viability, 1 (CHO DP-12): 86.3
Amount of protein produced, 2 (CHO DP-12): 4.90 mg/L
Viability, 2 (CHO DP-12): 87.3
Amount of protein produced, 3 (CHO DP-12): 5.44 mg/L
Viability, 3 (CHO DP-12): 87.2

Gly-Pro-Pro [GPP]
Absorbance (450 nm) (CHO-K1; 0.137 mM peptide): 0.1163
Absorbance (450 nm) (CHO-K1; 0.276 mM peptide): 0.2303
Absorbance (450 nm) (CHO-K1; 0.550 mM peptide): 0.4117
Absorbance (450 nm) (CHO-K1; 1.10 mM peptide): 0.6443
Absorbance (450 nm) (CHO-K1; 2.20 mM peptide): 0.5700
Absorbance (450 nm) (CHO-K1; 4.40 mM peptide): 0.3620
cell growth promotion, order of the peptides (CHO-K1): cell growth was promoted
Amount of protein produced, Average (CHO DP-12): 5.86 mg/L
Viability, Average (CHO DP-12): 88.2
Cells cell count, Average (CHO DP-12): 15.5502 ×10^4
Amount of protein produced, 1 (CHO DP-12): 5.78 mg/L
Viability, 1 (CHO DP-12): 88.9
Amount of protein produced, 2 (CHO DP-12): 5.31 mg/L
Viability, 2 (CHO DP-12): 87.9
Amount of protein produced, 3 (CHO DP-12): 6.50 mg/L
Viability, 3 (CHO DP-12): 87.9
